Two molecules from patent publication US10829493B2, “Compositions and methods for treating KIT- and PDGFRA-mediated diseases” (Blueprint Medicines Corporation, priority 2019, dated 2020) can be followed below.

Structures are written as SMILES. Like-named read-outs stand apart in the source and are kept apart here.

Series [1] can be described thus: Pharmacokinetics following single intravenous and oral administration in rats. Format: in vivo, Sprague-Dawley rats. Here is the method: Assessment of pharmacokinetics following single intravenous and oral administration in rats: 3 Sprague-Dawley rats were employed for each compound for each route of administration (iv or oral). For iv administration, 1 mg/kg (dose volume=5 mL/kg) of each compound was administered by intravenous route via […] injection; whereas for oral route, 2.5 mg/kg (dose volume=5 mL/kg) was administered via oral gavage. Blood samples were obtained via tail vein at predose, 0.083, 0.25, 0.5, 1, 2, 4 and 8 hr. In addition, blood samples were also obtained at 24 hr via cardiac puncture (under anesthesia with Isoflurane) for terminal bleeding. All the blood samples were analyzed for the drug concentrations via LC/MS-MS. Pharmacokinetic parameters such as Cmax, Tmax, AUClast, AUCinf, MRTlast, MRTinf, T1/2, Vss and CL were obtained by non-compartmental analysis (NCA). Further, unbound clearance (CLu) was obtained as follows: Clu=Cl/fu,plasma.
% F was calculated as follows: % F=[AUCinf(oral)/Dose]/[AUCinf(iv)/Dose]*100 (Zhivkova & Doytchinova, Molecular Pharmaceuticals 10:3758-68 (2013)).

In series [2] the target is CYP2C9 (Homo sapiens (Human), UniProt P11712). The experiment in a line: CYP inhibition in human liver microsomes, CYP2C9 (diclofenac). In kind it is in vitro ADME. Particulars: pooled human liver microsomes, substrate diclofenac. Here is the method:
(§1) In vitro studies in human liver microsomes were run according the standard method. […] The samples were then analyzed by LC-MS/MS for the quantification of the probe substrate left after the reaction and the IC50 values were determined by non-linear regression. The substrates for CYP2C9, CYP2D6, CYP3A4 were diclofenac, dextromethorphan and midazolam/testosterone respectively.
(Liver microsomes are a subcellular fraction often used to study metabolism.)

Series [3] concerns the target CYP2D6 (Homo sapiens (Human), UniProt P10635). The experiment in a line: CYP inhibition in human liver microsomes, CYP2D6 (dextromethorphan). Format: in vitro ADME. Particulars: pooled human liver microsomes, substrate dextromethorphan. Here is the method: as §1
In series [4] the target is CYP3A4 (Homo sapiens (Human), UniProt P08684). The experiment in a line: CYP inhibition in human liver microsomes, CYP3A4 (midazolam/testosterone). In kind it is in vitro ADME. Here is the method:
as §1

The target in series [5] is KIT D816V (Homo sapiens (Human), UniProt P10721, D816V). Nature of the series: KIT D816V biochemical enzymatic activity assay (EZReader 2 mobility shift). Particulars: at APPKM for ATP, 20 μM ATP, 60 minutes. An excerpt:
(§2) PDGFRα and KIT enzymatic activity was monitored using the Perkin Elmer electrophoretic mobility shift technology platform, the EZReader 2.
(§3) Within the linear, steady-state phase of the kinase enzymatic reaction, the mixed pool of phosphorylated (product) and non-phosphorylated (substrate) peptides was passed through the microfluidic system of the PerkinElmer EZ Reader 2, under an applied electric potential difference. The presence of the phosphate group on the product peptide provided a difference in mass and charge between that of the substrate peptide, resulting in a separation of the substrate and product pools in the sample (Perrin et al., Expert Opin Drug Discovery 2010 Jan. 5(1):51-63).
(§4) As the product and substrate peptide mixture passes the lasers within the instrument, these pools are detected (λex=488 nm, λem=568 nm) and resolved as separate peaks. The ratio between these peaks reflects the activity of the compound at that concentration, in that well, under those conditions.
(§5) All test articles were dissolved in 100% DMSO at a stock concentration of 10 mM. A 100×, 10-point, 4-fold serial dilution of all test compounds was created in 100% DMSO, starting at a relevant concentration, usually 1 mM. A volume of 0.130 μL of each concentration was transferred to the relevant well of a 384-well assay plate (Greiner 781 201) using a TTPLabtech Mosquito nano-liter dispenser. Using the Multidrop, the remaining constituents of the reaction were then added to the 0.130 μL of compound as follows:
The plate was read on a Caliper EZReader 2.

Series [6] concerns the target PDGFRα D842V (Homo sapiens (Human), UniProt P16234, D842V). Nature of the series: PDGFRα D842V biochemical enzymatic activity assay (EZReader 2 mobility shift). The settings on record: at APPKM for ATP, 25 μM ATP, 90 minutes.
Excerpt: as §2, §3, §4
Inhibition of KIT (D816V) PDGFRα (D842V) Mutant Biochemical Enzymatic Activity
as §5
The reaction was stopped by the addition of 70 μl of Stop buffer (100 mM HEPES pH 7.5, 0.015% Brij 35, 35 mM EDTA and 0.2% of Coating Reagent 3, Caliper Lifesciences). The plate was read on a Caliper EZReader 2.

Series [7] addresses KIT D816V (Homo sapiens (Human), UniProt P10721, D816V/V560G). Nature of the series: HMC1.2 autophosphorylation assay (phospho-Y719 KIT AlphaLISA). The settings on record: HMC1.2 cell line, KIT autophosphorylation at tyrosine 719, 90 minutes; read-out: KIT (P-KIT HMC1.2 (nM)). In kind it is cell-based. Here is the method: 10,000 HMC1.2 cells were incubated in 22 μL culture media (phenol-red free IMDM, no serum) in each well of a 384-well plate and serum starved overnight in a tissue culture incubator (5% CO2, 37° C.). […] 10 μL of 100 μg/mL streptavidin donor beads (Perkin Elmer) were added to each well, blocked from light with solid black adhesive and shaken at 300 rpm at room temperature for 2 hours. Fluorescence signal was obtained on Envision (Perkin Elmer) by AlphaScreen 384 well HTS protocol.
On the technique in general: Alpha assays give light when donor and acceptor beads are brought close together.

Series [8] addresses wt KIT kinase (Homo sapiens (Human), UniProt P10721). The experiment in a line: Wild-type KIT binding assay (Kd determination, phage-tagged kinase, qPCR). As for the experimental part: Kd Determinations. For most assays, including wt KIT kinase, kinase-tagged T7 phage strains were prepared in an E. coli host derived from the BL21 strain. E. coli were grown to log-phase and infected with T7 phage and incubated with shaking at 32° C. until lysis. […] The liganded beads were blocked with excess biotin and washed with blocking buffer (SeaBlock (Pierce), 1% BSA, 0.05% Tween 20, 1 mM DTT) to remove unbound ligand and to reduce non-specific binding. […] Test compounds were prepared as 111× stocks in 100% DMSO. Kds were determined using an 11-point 3-fold compound dilution series with three DMSO control points. […] The compounds were then diluted directly into the assays such that the final concentration of DMSO was 0.9%. All reactions were performed in polypropylene 384-well plate. Each was a final volume of 0.02 ml. […] The kinase concentration in the eluates was measured by qPCR.
Binding Constants (Kds). Binding constants (Kds) were calculated with a standard dose-response curve using the Hill equation: Response=Background+Signal−Background 1+(KdHill Slope/DoseHill Slope). The Hill Slope was set to −1. Curves were fitted using a non-linear least square fit with the Levenberg-Marquardt algorithm.

Chain of CYP3A4 (P08684 whole entry): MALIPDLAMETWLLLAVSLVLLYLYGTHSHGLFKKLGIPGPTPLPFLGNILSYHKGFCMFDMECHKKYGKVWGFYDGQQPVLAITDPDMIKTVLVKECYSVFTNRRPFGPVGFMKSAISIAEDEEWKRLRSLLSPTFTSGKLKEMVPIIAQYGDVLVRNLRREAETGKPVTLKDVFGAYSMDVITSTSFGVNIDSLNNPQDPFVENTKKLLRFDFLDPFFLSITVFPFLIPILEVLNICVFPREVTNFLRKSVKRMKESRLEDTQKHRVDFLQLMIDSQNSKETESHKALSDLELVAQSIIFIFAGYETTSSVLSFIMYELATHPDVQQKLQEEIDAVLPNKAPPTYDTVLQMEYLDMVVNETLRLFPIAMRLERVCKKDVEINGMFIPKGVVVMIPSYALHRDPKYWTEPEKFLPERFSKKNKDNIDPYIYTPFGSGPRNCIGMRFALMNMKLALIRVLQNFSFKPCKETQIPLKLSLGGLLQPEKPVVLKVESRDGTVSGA
Chain of CYP2C9 (P11712 whole entry): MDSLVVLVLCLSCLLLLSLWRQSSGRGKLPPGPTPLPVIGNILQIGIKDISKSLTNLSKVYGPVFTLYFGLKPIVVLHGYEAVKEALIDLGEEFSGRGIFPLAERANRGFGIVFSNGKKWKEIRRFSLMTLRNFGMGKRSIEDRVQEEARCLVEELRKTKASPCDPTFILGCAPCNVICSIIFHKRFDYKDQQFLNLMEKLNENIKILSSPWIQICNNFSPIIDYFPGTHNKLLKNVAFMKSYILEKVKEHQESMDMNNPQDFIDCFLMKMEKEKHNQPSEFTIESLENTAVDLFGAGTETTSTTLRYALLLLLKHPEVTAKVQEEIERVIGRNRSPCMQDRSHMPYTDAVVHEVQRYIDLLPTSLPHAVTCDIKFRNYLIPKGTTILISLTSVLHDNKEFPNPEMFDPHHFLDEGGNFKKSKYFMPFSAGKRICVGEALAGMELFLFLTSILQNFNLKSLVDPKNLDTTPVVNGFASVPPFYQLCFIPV
Chain of CYP2D6 (P10635 whole entry): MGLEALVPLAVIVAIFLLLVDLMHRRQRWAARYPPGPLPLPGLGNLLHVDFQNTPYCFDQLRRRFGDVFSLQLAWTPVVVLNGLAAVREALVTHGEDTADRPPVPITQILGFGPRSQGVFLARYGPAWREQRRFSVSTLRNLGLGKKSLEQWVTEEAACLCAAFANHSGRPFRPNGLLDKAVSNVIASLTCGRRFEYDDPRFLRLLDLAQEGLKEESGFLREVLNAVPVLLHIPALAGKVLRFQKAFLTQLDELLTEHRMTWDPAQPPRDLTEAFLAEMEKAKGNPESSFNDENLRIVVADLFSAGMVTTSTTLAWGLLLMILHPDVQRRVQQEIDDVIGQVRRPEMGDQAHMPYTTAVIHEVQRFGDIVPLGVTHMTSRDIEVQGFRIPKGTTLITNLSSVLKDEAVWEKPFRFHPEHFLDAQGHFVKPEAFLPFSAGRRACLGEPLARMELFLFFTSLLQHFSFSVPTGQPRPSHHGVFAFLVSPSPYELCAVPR
Chain of PDGFRα D842V (P16234 24-1089 D842V): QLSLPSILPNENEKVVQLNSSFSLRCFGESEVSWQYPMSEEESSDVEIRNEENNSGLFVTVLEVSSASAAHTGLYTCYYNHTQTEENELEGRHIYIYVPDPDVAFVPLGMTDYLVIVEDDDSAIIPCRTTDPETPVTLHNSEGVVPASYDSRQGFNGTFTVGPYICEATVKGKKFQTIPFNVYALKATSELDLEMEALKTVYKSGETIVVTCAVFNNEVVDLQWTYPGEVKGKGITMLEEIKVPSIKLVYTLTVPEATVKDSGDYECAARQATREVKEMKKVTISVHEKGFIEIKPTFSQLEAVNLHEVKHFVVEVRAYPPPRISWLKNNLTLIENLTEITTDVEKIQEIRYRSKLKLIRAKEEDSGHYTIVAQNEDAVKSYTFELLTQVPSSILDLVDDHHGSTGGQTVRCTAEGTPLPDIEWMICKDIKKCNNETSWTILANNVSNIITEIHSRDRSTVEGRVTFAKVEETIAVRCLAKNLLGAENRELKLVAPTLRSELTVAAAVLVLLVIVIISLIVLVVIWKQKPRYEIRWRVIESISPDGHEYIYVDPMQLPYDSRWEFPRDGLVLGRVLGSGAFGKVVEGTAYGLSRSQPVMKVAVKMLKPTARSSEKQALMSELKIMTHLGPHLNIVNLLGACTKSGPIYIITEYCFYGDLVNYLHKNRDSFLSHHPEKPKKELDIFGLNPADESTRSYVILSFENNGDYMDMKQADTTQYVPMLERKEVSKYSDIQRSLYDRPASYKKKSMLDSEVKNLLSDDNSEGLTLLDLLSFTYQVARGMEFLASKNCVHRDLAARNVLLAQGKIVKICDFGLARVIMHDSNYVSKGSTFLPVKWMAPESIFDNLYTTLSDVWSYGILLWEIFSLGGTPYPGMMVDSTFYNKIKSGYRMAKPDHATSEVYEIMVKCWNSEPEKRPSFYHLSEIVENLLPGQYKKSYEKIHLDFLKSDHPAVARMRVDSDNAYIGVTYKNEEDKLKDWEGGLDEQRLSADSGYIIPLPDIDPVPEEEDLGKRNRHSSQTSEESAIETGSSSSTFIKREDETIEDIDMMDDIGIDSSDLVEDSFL
Chain of wt KIT kinase (P10721 26-976): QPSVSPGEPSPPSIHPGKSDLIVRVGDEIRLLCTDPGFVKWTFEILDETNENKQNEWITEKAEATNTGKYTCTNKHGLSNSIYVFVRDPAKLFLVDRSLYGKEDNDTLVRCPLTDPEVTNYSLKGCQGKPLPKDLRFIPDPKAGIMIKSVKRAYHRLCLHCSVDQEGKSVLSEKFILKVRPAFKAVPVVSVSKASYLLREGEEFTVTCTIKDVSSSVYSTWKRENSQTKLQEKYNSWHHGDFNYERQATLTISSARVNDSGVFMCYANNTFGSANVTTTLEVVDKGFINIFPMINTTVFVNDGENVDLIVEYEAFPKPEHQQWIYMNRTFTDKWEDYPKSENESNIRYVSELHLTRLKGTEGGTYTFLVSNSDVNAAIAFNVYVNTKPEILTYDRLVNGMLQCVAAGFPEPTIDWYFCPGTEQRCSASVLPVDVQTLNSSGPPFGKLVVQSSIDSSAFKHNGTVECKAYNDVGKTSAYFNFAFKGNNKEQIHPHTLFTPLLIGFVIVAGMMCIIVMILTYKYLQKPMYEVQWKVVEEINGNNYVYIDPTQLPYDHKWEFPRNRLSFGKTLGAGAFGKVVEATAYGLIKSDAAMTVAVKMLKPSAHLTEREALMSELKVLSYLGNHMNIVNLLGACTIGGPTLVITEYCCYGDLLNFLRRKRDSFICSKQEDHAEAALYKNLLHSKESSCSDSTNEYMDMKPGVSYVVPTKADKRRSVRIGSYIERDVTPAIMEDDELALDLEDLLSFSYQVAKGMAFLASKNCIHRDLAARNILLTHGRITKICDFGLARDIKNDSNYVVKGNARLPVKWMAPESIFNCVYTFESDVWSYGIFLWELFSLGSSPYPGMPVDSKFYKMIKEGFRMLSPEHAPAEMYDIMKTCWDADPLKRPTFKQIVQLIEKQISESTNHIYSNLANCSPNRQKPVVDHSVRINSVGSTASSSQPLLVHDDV
Chain of KIT D816V (Homo sapiens (Human), UniProt P10721, D816V) (P10721 26-976 D816V): as the sequence (P10721 26-976) above, with D791V counted along it
Chain of KIT D816V (Homo sapiens (Human), UniProt P10721, D816V/V560G) (P10721 26-976 V560G/D816V): as the sequence (P10721 26-976) above, with V535G, D791V counted along it

Usually bioavailability stands for dose-corrected exposure relative to a reference, in per cent. A low value points to little systemic uptake. Take `C[C@](N)(c1ccc(F)cc1)c1cnc(N2CCN(c3ncnn4cc(-c5cnn(CCO)c5)cc34)CC2)nc1` [Compound 4, (S)-2-(4-(4-(4-(5-(1-amino-1-(4-fluorophenyl)ethyl)pyrimidin-2-yl)piperazin-1-yl)pyrrolo[2,1-f][1,2,4]triazin-6-yl)-1H-pyrazol-1-yl)ethanol]: in series [1] (Sprague-Dawley, blood, rat, iv 1 mg/kg, read-out: Rat IV PK Cl), the clearance turned out to be 12 mL/min/kg. In series [1] (Sprague-Dawley, blood, rat, oral 2.5 mg/kg vs iv 1 mg/kg), this molecule yielded a bioavailability of 80%. Moreover, the “Rat IV PK unbound clearance (Clu)” value in series [1] (iv 1 mg/kg, Clu=Cl/fu,plasma) is 582 mL/min/kg. Moreover, the IC50 is 7.13 µM in series [2]; 10 µM in series [3]; less than 10 µM in series [4] (as measured according to Example 5, substrate not stated (embodiment 14), read-out: IC50 for CYP3A4); not below 10 µM in series [4] (pooled human liver microsomes, substrate midazolam, read-out: CYP3A4 IC50 (μM) midazolam); not below 10 µM in series [4] (pooled human liver microsomes, substrate testosterone, read-out: CYP3A4 IC50 (μM) testosterone).
By Kd is commonly meant the free concentration of one partner at which half of the binding sites on the other are occupied at equilibrium, for simple one-to-one binding. Take `CCn1cc(-c2cc3c(N4CCN(c5ncc([C@@](C)(N)c6ccc(F)cc6)cn5)CC4)ncnn3c2)cn1` [Compound 63, reference compound]: the IC50 in series [5] is not above 0.0003 µM; in series [6] it was not above 0.0003 µM; in series [7], less than 4.5 nM. In series [8], this molecule gave a Kd of 0.0151 to 0.02 µM.
